Calls of active or inactive are those of the source. The calls are words filed in the database; no cut-off is given here.
Legend:
Assay type in all cases: functional, cell-based
[1] = target: T1, Free fatty acid receptor 3 (Homo sapiens) (UniProt O14843); assay: Antagonist activity at doxycyclin-induced GPR41 (unknown origin) overexpressed in HEK293 cells assessed as increase in forskolin/propionate-induced cAMP level at 1 uM
T1 sequence (whole entry): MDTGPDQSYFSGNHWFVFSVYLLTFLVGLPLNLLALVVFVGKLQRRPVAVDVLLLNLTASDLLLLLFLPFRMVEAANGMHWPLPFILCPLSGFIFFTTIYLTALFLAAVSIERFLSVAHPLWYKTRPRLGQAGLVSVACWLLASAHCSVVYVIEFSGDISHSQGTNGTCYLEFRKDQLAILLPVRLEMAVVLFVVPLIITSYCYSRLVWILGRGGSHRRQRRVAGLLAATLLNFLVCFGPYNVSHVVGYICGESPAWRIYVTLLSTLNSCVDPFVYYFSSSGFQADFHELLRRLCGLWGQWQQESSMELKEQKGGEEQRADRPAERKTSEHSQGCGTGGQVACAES

[2] = target: T2, Free fatty acid receptor 3 (Homo sapiens, UniProt O14843); assay: Agonist activity at doxycyclin-induced GPR41 (unknown origin) overexpressed in HEK293 cells assessed as decrease in forskolin-induced cAMP level
T2 sequence (O14843 whole entry): T1 sequence (whole entry)

[3] = target: T3, Free fatty acid receptor 2 (Homo sapiens) (UniProt O15552); assay: Agonist activity at GPR43 (unknown origin) overexpressed in HEK293 cells assessed as decrease in forskolin-induced cAMP level at 1 uM
T3 sequence (whole entry): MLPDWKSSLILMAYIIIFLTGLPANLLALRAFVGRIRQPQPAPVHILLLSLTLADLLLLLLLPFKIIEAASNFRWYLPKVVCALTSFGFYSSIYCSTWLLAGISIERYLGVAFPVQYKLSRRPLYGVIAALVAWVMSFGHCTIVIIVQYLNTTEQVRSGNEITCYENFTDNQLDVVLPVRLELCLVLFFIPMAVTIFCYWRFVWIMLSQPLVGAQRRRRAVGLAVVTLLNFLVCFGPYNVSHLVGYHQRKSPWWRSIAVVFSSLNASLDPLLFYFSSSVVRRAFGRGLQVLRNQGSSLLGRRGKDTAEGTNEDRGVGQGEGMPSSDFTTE

[4] = target: T1, Free fatty acid receptor 3 (Homo sapiens); assay: Agonist activity at doxycyclin-induced GPR41 (unknown origin) overexpressed in HEK293 cells assessed as decrease in forskolin-induced cAMP level at 30 uM
[5] = target: T1, Free fatty acid receptor 3 (Homo sapiens); assay: Agonist activity at GPR41 (unknown origin) overexpressed in HEK293 cells assessed as decrease in forskolin-induced cAMP level
[6] = target: T1, Free fatty acid receptor 3 (Homo sapiens); assay: Agonist activity at doxycyclin-induced GPR41 (unknown origin) overexpressed in HEK293 cells assessed as decrease in forskolin-induced cAMP level at 1 uM
[7] = target: T1, Free fatty acid receptor 3 (Homo sapiens); assay: Agonist activity at doxycyclin-induced GPR41 (unknown origin) overexpressed in HEK293 cells assessed as decrease in forskolin-induced cAMP level at 10 uM; conditions: filed as agonist

CC1=C(C(=O)Nc2ccccc2C)C(c2ccc(-c3cccc(F)c3)o2)C2=C(CCCC2=O)N1 (stereo unspecified)
Activity [1]: inactive

CC1=C(C(=O)Nc2ccccc2C)C(c2ccc(-c3ccccc3C#N)o2)C2=C(CCCC2=O)N1 (stereo unspecified)
Activity [1]: inactive

CC1=C(C(=O)Nc2ccccc2C)C(c2ccc(-c3cc(C)cc(C)c3)o2)C2=C(CCCC2=O)N1 (stereo unspecified)
Activity [1]: inactive

CC1=C(C(=O)Nc2cc(Cl)ccc2Cl)C(c2ccco2)C2=C(CCCC2=O)N1 (stereo unspecified)
Activity [1]: inactive | EC50 [2]: 741 nM | Activity [3]: inactive

CC1=C(C(=O)Nc2cc(Cl)ccc2Cl)C(c2ccc(-c3cc(F)c(F)c(F)c3)o2)C2=C(CCCC2=O)N1 (stereo unspecified)
Activity [4]: inactive | Activity [5]: inactive

CC1=C(C(=O)Nc2ccccc2C)C(c2ccc(-c3cc(F)c(F)c(F)c3)o2)C2=C(CCCC2=O)N1 (stereo unspecified)
Activity [5]: inactive | EC50 [2]: 5890 nM | Activity ([6]; filed as agonist): Active | Activity [3]: inactive

CC1=C(C(=O)Nc2ccccc2C)C(c2ccc(-c3ccco3)o2)C2=C(CCCC2=O)N1 (stereo unspecified)
Activity [1]: inactive

CC1=C(C(=O)Nc2ccccc2C)C(c2ccc(-c3ccccc3Cl)o2)C2=C(CCCC2=O)N1 (stereo unspecified)
Activity [1]: inactive

CC1=C(C(=O)Nc2ccccc2C)C(c2ccc(-c3ccc(F)c(F)c3)o2)C2=C(CCCC2=O)N1 (stereo unspecified)
Activity [5]: inactive | EC50 [2]: 3400 nM | Activity ([6]; filed as agonist): Active | Activity [3]: inactive

CC1=C(C(=O)Nc2ccccc2C)C(c2ccc(-c3ccccc3)o2)C2=C(CCCC2=O)N1 (stereo unspecified)
Activity [7]: Active | Activity [1]: inactive

CC1=C(C(=O)Nc2ccccc2C)C(c2ccc(-c3ccsc3)o2)C2=C(CCCC2=O)N1 (stereo unspecified)
Activity [1]: inactive

CC1=C(C(=O)Nc2ccccc2C)C(c2ccc(-c3ccc(F)cc3)o2)C2=C(CCCC2=O)N1 (stereo unspecified)
Activity [1]: inactive

CC1=C(C(=O)Nc2ccccc2C)C(c2ccc(-c3ccccc3OC(F)(F)F)o2)C2=C(CCCC2=O)N1 (stereo unspecified)
Activity ([1]; filed as antagonist): Active

CC1=C(C(=O)Nc2ccccc2C)C(c2ccc(-c3ccc(F)cc3F)o2)C2=C(CCCC2=O)N1 (stereo unspecified)
Activity ([6]; filed as agonist): Active

CC1=C(C(=O)Nc2cc(Cl)ccc2Cl)C(c2ccc(-c3cc(F)cc(F)c3)o2)C2=C(CCCC2=O)N1 (stereo unspecified)
Activity [4]: inactive | Activity [5]: inactive

CC1=C(C(=O)Nc2ccccc2C)C(c2ccc(-c3ccc(Cl)cc3)o2)C2=C(CCCC2=O)N1 (stereo unspecified)
Activity [1]: inactive

CC1=C(C(=O)Nc2ccccc2C)C(c2ccc(-c3cccc(Cl)c3)o2)C2=C(CCCC2=O)N1 (stereo unspecified)
Activity [1]: inactive

COc1cc(OC)cc(-c2ccc(C3C(C(=O)Nc4ccccc4C)=C(C)NC4=C3C(=O)CCC4)o2)c1 (stereo unspecified)
Activity [1]: inactive

CC1=C(C(=O)Nc2ccccc2C)C(c2ccc(-c3ccccc3C(F)(F)F)o2)C2=C(CCCC2=O)N1 (stereo unspecified)
Activity [1]: inactive

CC1=C(C(=O)Nc2cc(Cl)ccc2Cl)C(c2ccc(-c3ccc(F)c(F)c3)o2)C2=C(CCCC2=O)N1 (stereo unspecified)
Activity [4]: inactive | Activity [5]: inactive

CC1=C(C(=O)Nc2ccccc2C)C(c2ccc(-c3c(F)cccc3F)o2)C2=C(CCCC2=O)N1 (stereo unspecified)
Activity [6]: inactive

CCC(=O)O
Activity [1]: inactive | Activity ([3]; filed as agonist): Active

CC1=C(C(=O)Nc2ccccc2C)C(c2ccc(-c3cc(C(F)(F)F)cc(C(F)(F)F)c3)o2)C2=C(CCCC2=O)N1 (stereo unspecified)
Activity [1]: inactive

CC1=C(C(=O)Nc2ccccc2C)C(c2ccc(-c3cc(F)cc(F)c3)o2)C2=C(CCCC2=O)N1 (stereo unspecified)
Activity [1]: inactive | Activity [5]: inactive | EC50 [2]: 679 nM | Activity ([6]; filed as agonist): Active | Activity [3]: inactive

CC1=C(C(=O)Nc2ccccc2C)C(c2ccc(-c3ccccc3F)o2)C2=C(CCCC2=O)N1 (stereo unspecified)
Activity [1]: inactive

CC1=C(C(=O)Nc2cc(Cl)ccc2Cl)C(c2ccc(-c3ccc(F)c(F)c3F)o2)C2=C(CCCC2=O)N1 (stereo unspecified)
Activity [5]: inactive | EC50 [2]: 447 nM | Activity [3]: inactive

CC1=C(C(=O)Nc2ccccc2C)C(c2ccc(-c3cccc(C(F)(F)F)c3)o2)C2=C(CCCC2=O)N1 (stereo unspecified)
Activity [1]: inactive

CC1=C(C(=O)Nc2ccccc2C)C(c2ccc(-c3cc(Cl)cc(Cl)c3)o2)C2=C(CCCC2=O)N1 (stereo unspecified)
Activity [6]: inactive

CC1=C(C(=O)Nc2ccccc2C)C(c2ccc(-c3ccc(F)c(F)c3F)o2)C2=C(CCCC2=O)N1 (stereo unspecified)
Activity [5]: inactive | EC50 [2]: 5510 nM | Activity ([6]; filed as agonist): Active | Activity [3]: inactive

CC1=C(C(=O)Nc2ccccc2C)C(c2ccc(-c3cccc(C#N)c3)o2)C2=C(CCCC2=O)N1 (stereo unspecified)
Activity [1]: inactive

CC1=C(C(=O)Nc2ccccc2C)C(c2ccc(-c3ccc(C)cc3)o2)C2=C(CCCC2=O)N1 (stereo unspecified)
Activity [1]: inactive

COc1cccc(-c2ccc(C3C(C(=O)Nc4ccccc4C)=C(C)NC4=C3C(=O)CCC4)o2)c1 (stereo unspecified)
Activity [1]: inactive

CC1=C(C(=O)Nc2ccccc2C)C(c2ccc(-c3ccc(C(F)(F)F)cc3)o2)C2=C(CCCC2=O)N1 (stereo unspecified)
Activity [1]: inactive | Activity ([6]; filed as agonist): Active

— ChEMBL document CHEMBL5550124, “Structure-activity relationship studies of tetrahydroquinolone derivatives as GPR41 modulators” (Bioorg Med Chem Lett, 2024)
